For test [1], the system named is KB/V. Kind of test: Reversal of human P-glycoprotein-mediated multidrug resistance in human KB/V cells as reduction of vincristine IC50 at 10 uM. The class given is cell-based.
In the next test the test system is KB. Put plainly: Cytotoxicity against human KB cells. Format: functional, cell-based.
Test [2] relates to KB/V. Put plainly: Ratio of compound reversal of P-glycoprotein-mediated multidrug resistance to verapamil reversal of P-glycoprotein-mediated multidrug resistance in human KB/V cells. The class given is cell-based.
Test [3] has as its system KB/V. Put plainly: Partial reversal of human P-glycoprotein-mediated multidrug resistance in human KB/V cells as reduction of vincristine IC50 at 10 uM. The class given is cell-based.

Active and inactive are the calls of the source. The calls are words filed in the database; no cut-off is given here.

For `C=C1[C@@H](OC(=O)Cc2cccc3ccccc23)CC[C@@]2(C)C[C@H](OC(C)=O)C3=C(C)C(=O)C[C@@H]([C@@H](OC(C)=O)[C@H]12)C3(C)C`, the outcome in the test on KB/V [1] and in the test on KB was inactive.
In the case of `C=C1[C@@H](OC(=O)CCC(=O)O)CC[C@@]2(C)C[C@H](OC(C)=O)C3=C(C)CC[C@@H]([C@@H](OC(C)=O)[C@H]12)C3(C)C`, the result with KB/V [1] and with KB was inactive.
Take `C=C1[C@@H](OC(=O)CCc2cccnc2)CC[C@@]2(C)C[C@H](OC(C)=O)C3=C(C)C(=O)C[C@@H]([C@@H](OC(C)=O)[C@H]12)C3(C)C`: the outcome in the test on KB/V [1] was Active. Further, the result with KB was inactive. The Ratio with KB/V [2] was 1.42.
As to `C=C1[C@@H](OC(=O)c2cccnc2)CC[C@@]2(C)C[C@H](OC(C)=O)C3=C(C)C(=O)C[C@@H]([C@@H](OC(C)=O)[C@H]12)C3(C)C`, the result with KB was inactive. For the same compound, the outcome with KB/V [3] was Active.
`C=C1[C@@H](OC(=O)[C@@H]2CCCN2)CC[C@@]2(C)C[C@H](OC(C)=O)C3=C(C)C(=O)CC([C@@H](OC(C)=O)[C@H]12)C3(C)C` (single isomer, unassigned): in the test with KB/V [1], the result was Active. In addition, the result in the test with KB was inactive. Moreover, the Ratio in the test with KB/V [2] came out at 21.2.
With `C=C1[C@@H](OC(=O)Cc2cc(OC)ccc2OC)CC[C@@]2(C)C[C@H](OC(C)=O)C3=C(C)CC[C@@H]([C@@H](OC(C)=O)[C@H]12)C3(C)C`, the result in the test with KB/V [1] and with KB was inactive.
Turning to `C=C1[C@@H](OC(=O)COc2ccc3ccccc3c2)CC[C@@]2(C)C[C@H](OC(C)=O)C3=C(C)CC[C@@H]([C@@H](OC(C)=O)[C@H]12)C3(C)C`, in the test with KB, the outcome was inactive. Also, the result in the test with KB/V [3] was Active.
For `C=C1[C@@H](OC(=O)/C=C/c2ccccc2)CC[C@@]2(C)C[C@H](OC(C)=O)C3=C(C)CC[C@@H]([C@@H](OC(C)=O)[C@H]12)C3(C)C`, the outcome in the test on KB/V [1] and in the test with KB was inactive.
Take `C=C1[C@@H](OC(=O)c2ccco2)CC[C@@]2(C)C[C@H](OC(C)=O)C3=C(C)C(=O)C[C@@H]([C@@H](OC(C)=O)[C@H]12)C3(C)C`: the outcome in the test on KB was inactive. The result in the test on KB/V [3] was Active.
For `C=C1[C@@H](OC(=O)CCc2cccs2)CC[C@@]2(C)C[C@H](OC(C)=O)C3=C(C)C(=O)C[C@@H]([C@@H](OC(C)=O)[C@H]12)C3(C)C`, the result in the test on KB/V [1] and with KB was inactive.
On to `C=C1[C@@H](OC(=O)CCc2ccccc2)CC[C@@]2(C)C[C@H](OC(C)=O)C3=C(C)CC[C@@H]([C@@H](OC(C)=O)[C@H]12)C3(C)C`, for which the result with KB/V [1] and with KB was inactive.
As to `C=C1[C@@H](OC(=O)CCC2CCCCC2)CC[C@@]2(C)C[C@H](OC(C)=O)C3=C(C)C(=O)C[C@@H]([C@@H](OC(C)=O)[C@H]12)C3(C)C`, the outcome in the test on KB was inactive. Besides, the result in the test on KB/V [3] was Active.
With `C=C1[C@@H](OC(=O)CCCc2ccccc2)CC[C@@]2(C)C[C@H](OC(C)=O)C3=C(C)CC[C@@H]([C@@H](OC(C)=O)[C@H]12)C3(C)C`, the outcome in the test with KB/V [1] and with KB was inactive.
Take `C=C1[C@@H](OC(=O)c2cccnc2)CC[C@@]2(C)C[C@H](OC(C)=O)C3=C(C)CC[C@@H]([C@@H](OC(C)=O)[C@H]12)C3(C)C`: the outcome in the test on KB was inactive. In addition, the result with KB/V [3] was Active.
`C=C1[C@@H](OC(=O)CCCCc2ccccc2)CC[C@@]2(C)C[C@H](OC(C)=O)C3=C(C)C(=O)C[C@@H]([C@@H](OC(C)=O)[C@H]12)C3(C)C`: the result with KB/V [1] and with KB was inactive.
Take `C=C1[C@@H](OC(=O)CCC2CCCCC2)CC[C@@]2(C)C[C@H](OC(C)=O)C3=C(C)CC[C@@H]([C@@H](OC(C)=O)[C@H]12)C3(C)C`: the outcome with KB/V [1] and with KB was inactive.
On to `C=C1[C@@H](OC(=O)Cc2ccccc2)CC[C@@]2(C)C[C@H](OC(C)=O)C3=C(C)CC[C@@H]([C@@H](OC(C)=O)[C@H]12)C3(C)C`, for which the result in the test with KB/V [1] and in the test with KB was inactive.
As to `COc1ccc(CCN(C)CCCC(C#N)(c2ccc(OC)c(OC)c2)C(C)C)cc1OC` (stereo not drawn), the result with KB/V [1] and in the test with KB was inactive.
Turning to `C=C1[C@@H](OC(=O)/C=C\c2ccco2)CC[C@@]2(C)C[C@H](OC(C)=O)C3=C(C)C(=O)C[C@@H]([C@@H](OC(C)=O)[C@H]12)C3(C)C`, the outcome in the test on KB/V [1] was Active. Moreover, in the test with KB, the result was inactive. Also, the Ratio with KB/V [2] came out at 1.67.
In the case of `C=C1[C@@H](OC(=O)Cc2cccs2)CC[C@@]2(C)C[C@H](OC(C)=O)C3=C(C)CC[C@@H]([C@@H](OC(C)=O)[C@H]12)C3(C)C`, the outcome in the test with KB/V [1] and with KB was inactive.
For the compound `C=C1[C@@H](OC(=O)Cc2cccs2)CC[C@@]2(C)C[C@H](OC(C)=O)C3=C(C)C(=O)C[C@@H]([C@@H](OC(C)=O)[C@H]12)C3(C)C`, the result in the test with KB/V [1] and in the test with KB was inactive.
For the compound `C=C1[C@@H](OC(=O)/C=C\c2ccco2)CC[C@@]2(C)C[C@H](OC(C)=O)C3=C(C)CC[C@@H]([C@@H](OC(C)=O)[C@H]12)C3(C)C`, the result with KB/V [1] and in the test on KB was inactive.
In the case of `C=C1[C@@H](OC(=O)CC2CCCCC2)CC[C@@]2(C)C[C@H](OC(C)=O)C3=C(C)C(=O)C[C@@H]([C@@H](OC(C)=O)[C@H]12)C3(C)C`, the outcome with KB/V [1] was Active. For the same compound, in the test on KB, the outcome was inactive. Moreover, the Ratio in the test with KB/V [2] was 6.6.
`C=C1[C@@H](OC(=O)CCCc2cccs2)CC[C@@]2(C)C[C@H](OC(C)=O)C3=C(C)C(=O)C[C@@H]([C@@H](OC(C)=O)[C@H]12)C3(C)C`: the outcome with KB was inactive. Besides, the result in the test on KB/V [3] was Active.
`C=C1[C@@H](OC(=O)c2ccco2)CC[C@@]2(C)C[C@H](OC(C)=O)C3=C(C)CC[C@@H]([C@@H](OC(C)=O)[C@H]12)C3(C)C`: the result in the test on KB/V [1] and in the test with KB was inactive.
For `C=C1[C@@H](OC(=O)CCCCc2ccccc2)CC[C@@]2(C)C[C@H](OC(C)=O)C3=C(C)CC[C@@H]([C@@H](OC(C)=O)[C@H]12)C3(C)C`, in the test with KB, the outcome was inactive. In the test with KB/V [3], the outcome was Active.
Consider `C=C1[C@@H](OC(=O)COc2ccc3ccccc3c2)CC[C@@]2(C)C[C@H](OC(C)=O)C3=C(C)C(=O)C[C@@H]([C@@H](OC(C)=O)[C@H]12)C3(C)C`, for which the outcome with KB/V [1] and with KB was inactive.

The record behind these values is ChEMBL document CHEMBL1221360, “Synthesis and structure-activity relationships of sinenxan A derivatives as multidrug resistance reversal agents” (Bioorg Med Chem Lett, 2010).
